The record followed here is patent publication US9127079B2, “Inhibitors of phosphatase and tensin homolog (PTEN) conjugates” (THE UNIVERSITY OF BRITISH COLUMBIA, priority 2009, dated 2015).

Experiment [1] in a line: Forelimb grip strength after cerebral ischemia. Format: in vivo, rat. The settings on record: before vs 28 days after ischemia. As for the experimental part:
(§1) Adult male Sprague-Dawley rats (weight 200 g) were used in this study. All surgical procedures were performed using sterile/aseptic techniques in accordance with Institutional guidelines. Rats were anesthetized with chloral hydrate (0.4 g/kg IP) and subjected to cerebral ischemia. Ligation of the right middle cerebral artery (MCA) and bilateral common carotids arteries (CCAs) was performed by methods described previously (Shyu et al. 2005). The CCAs were clamped with non-traumatic arterial clips. The right MCA was ligated with a 10-0 nylone suture. After 90 min of ischemia, the suture on the MCA and the arterial clips on the CCAs were removed to allow reperfusion. Core body temperature was monitored with a thermistor probe (Hewlett-Packard™ Model 21090A probe, Hewlett-Packard Company™, Andover, Mass.), and maintained at 37° C. with a heating pad during anesthesia. […]
(§2) Behavioral assessments were measured on day 28 after stroke. […] The baseline-test scores were recorded in order to normalize those taken after cerebral ischemia. The elevated body swing test (EBST) was used to assess body asymmetry after MCA ligation and evaluated quantitatively as previously described (Shyu et al. 2004). […] The frequency of initial head swing contra-lateral to the ischemic side was counted in twenty continuous tests and was normalized, as follows: % recovery=[1−(lateral swings in twenty tests−10)/10×100%. […]

A short description of experiment [2]: Cortical glucose metabolism by FDG-PET after cerebral ischemia. Format: in vivo, rat. The settings on record: one week after treatment. Here is the method: as §1, with “anesthesia. After recovery from anesthesia, rat body temperature was maintained at 37° C. with a heat lamp. Experimental rats were subdivided into five groups receiving different types of interference peptides, all fused to a TAT protein transduction domain (PTEN-K13 (SEQ ID NO: 2) 2 hrs or 6 hrs, PTEN-K13R (SEQ ID NO: 3), PTEN-K289 (SEQ ID NO: 4), and vehicle control) via femoral vein with dosage of 8.4 mg/kg at 2 or 6 hours after MCA ligation for three consecutive days.” for “anesthesia.”

Experiment [3] in a line: Body asymmetry (elevated body swing test) after cerebral ischemia. Format: in vivo, rat. The settings on record: vs Peptide-K13R, Peptide-K289, saline. Here is the method:
as §1, §2

Experiment [4] in a line: Transgenic G37R SOD1 mouse model of ALS: survival and behavioural outcomes. The experiment is classed as in vivo. The settings on record: IP 16 mg/kg 3 times a week. Here is the method: Transgenic mice expressing G37R SOD1 (G37R) at almost 8 months of age and having no apparent pathologic symptoms were double blinded with a designated code and divided into 3 groups of 12 mice (6 male and 6 female) maintained on a pure C57BL6 background in the local animal facility under a 12 h light cycle with food and drinking water ad libitum. All mice were genotyped by PCR. The use of animals as described in this study was carried out according to The Guide to the Care and Use of Experimental Animals of the Canadian Council on Animal Care. […].
Body weight and neurological scores such as HLR scores and Rota Rod functions were regularly monitored and recorded. End points and survival dates were determined when mice were not able to stand up within 20 s when moved on the side. Disabled mice were anesthetized and sacrificed according to the guidelines of The University of British Columbia for the care and use of laboratory animals. All collected data were subjected to statistical analysis using Kaplan-Meier plots and Log-rank tests.

Regarding “KEIVSRNKRRYQED-YGRKKRRQRRR (KEIVSRNKRRYQEDYGRKKRRQRRR; PTEN K13 interference peptide conjugated to TAT protein transduction domain) [Peptide-K13]”, the “forelimb grip strength ratio” value in experiment [1] (given 2 hours after ischemia) and in experiment [1] (given 6 hours after ischemia) was “much better strength ratio” in each case. In addition, the “FDG uptake over the right cortex (microPET)” value in experiment [2] (i.v. 8.4 mg/kg given 2 hours after ischemia onset) and in experiment [2] (i.v. 8.4 mg/kg given 6 hours after ischemia onset) was “striking increase” each time. The “recovery in body swing tests” value in experiment [3] (given 2 hours after ischemia) and in experiment [3] (given 6 hours after ischemia) was “much more recovery” each time. Besides, the behavioural outcomes in experiment [4] (female ALS mice) is “improves behavioural outcomes”. The survival entry in experiment [4] (female ALS mice) is on record as “prolongs the survival”; in experiment [4] (male ALS mice), “no statistically significant improvement”.
